Source: the supplement of paper PMC5770543
± gives the standard deviation.

Experiments:
[1] = system: Toxoplasma gondii RH tachyzoites; test: plaque count per well; higher = less inhibition; extreme values may be limits of the assay; conditions: 10 µM; 8-10 days
Protocol: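 T. gondii RH tachyzoites expressing firefly luciferase were grown in HFF monolayers for 48 h with compound. % growth inhibition at 10 µM and EC50 (2-fold dilutions from 10 µM) were read by luminescence relative to 1% DMSO; EC50 listed as 10 (not determined, <80% inhibition) is left out. Plaque assays: 50 tachyzoites per well with 10 µM compound for 8-10 days, giving plaque count and area by crystal violet/ImageJ. Egress: median time to egress after 1 µM A23187 ionophore following 24 h of 10 µM compound (DMSO ~1.8 min; >10 = no egress within 10 min).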

[2] = system: Plasmodium falciparum 3D7; test: % inhibition of schizont-to-ring transition vs DMSO; higher = more inhibition
Procedure, shortened: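 Tightly synchronised P. falciparum schizonts (about 40–42 hours post-invasion, 1% parasitemia, 2.5% hematocrit, AlbuMAX-supplemented RPMI) were exposed to compound at 1, 3 or 10 µM, with vehicle and positive controls. Cells were glutaraldehyde-fixed, Triton-permeabilised, stained with Hoechst 33342 and counted by flow cytometry (at least 100,000 events). Schizont-to-ring transition inhibition is new ring formation relative to vehicle controls, averaged over three experiments.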

[3] = system: Plasmodium falciparum 3D7; test: EC50 growth inhibition (60 h, SYBR Green); conditions: stage: ring-stage start
[4] = system: Toxoplasma gondii RH tachyzoites; test: % growth inhibition vs DMSO (48 h luciferase); higher = more inhibition; conditions: 10 µM
[5] = biological target: Toxoplasma gondii RH tachyzoites; test: EC50 growth inhibition (48 h luciferase)
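For % growth inhibition vs DMSO (48 h luciferase) in this document: tested in triplicate wells of 96-well plates on confluent HFF monolayers, with 1% DMSO wells as negative control in four replicates.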

COc1ccccc1N1CCN(C(CNS(=O)(=O)c2ccc(Cl)cc2)c2cccnc2)CC1 (stereo not given)
plaque count per well [1]: 34
% inhibition of schizont-to-ring transition ([2]; 1 µM): 16%
% inhibition of schizont-to-ring transition ([2]; 3 µM): 20.5%
% inhibition of schizont-to-ring transition ([2]; 10 µM): 49.3%
EC50 growth inhibition [3]: 2260 nM
% growth inhibition [4]: 4.77 ± 8.3%

COc1ccc(CN2CCCC(C(=O)c3ccc(C(F)(F)F)cc3)C2)c(O)c1 (stereo not given)
plaque count per well [1]: 20
% inhibition of schizont-to-ring transition ([2]; 1 µM): 9.13%
% inhibition of schizont-to-ring transition ([2]; 3 µM): 32%
% inhibition of schizont-to-ring transition ([2]; 10 µM): 51.1%
EC50 growth inhibition [3]: 912 nM
% growth inhibition [4]: < 0%

OCCNc1nc(Nc2ccc(Cl)c(Cl)c2)nc2ccccc12
plaque count per well [1]: 0
% inhibition of schizont-to-ring transition ([2]; 1 µM): 51%
% inhibition of schizont-to-ring transition ([2]; 3 µM): 66.3%
% inhibition of schizont-to-ring transition ([2]; 10 µM): 68.9%
EC50 growth inhibition [3]: 180 nM
% growth inhibition [4]: < 0%

CCOc1ccc(CN2CCN(CC(O)COc3ccc(OCC(O)CN4CCN(Cc5ccc(OCC)cc5)CC4)cc3)CC2)cc1 (stereo not given)
plaque count per well [1]: 0
% inhibition of schizont-to-ring transition ([2]; 1 µM): < 0%
% inhibition of schizont-to-ring transition ([2]; 3 µM): 14.6%
% inhibition of schizont-to-ring transition ([2]; 10 µM): 59.9%
EC50 growth inhibition [3]: 3120 nM
% growth inhibition [4]: 4.15 ± 5.8%

Cc1ccc(F)cc1NC(=O)c1cc(Cl)ccc1Nc1ccccc1
plaque count per well [1]: 26
% inhibition of schizont-to-ring transition ([2]; 1 µM): 54.4%
% inhibition of schizont-to-ring transition ([2]; 3 µM): 70.7%
% inhibition of schizont-to-ring transition ([2]; 10 µM): 81.9%
EC50 growth inhibition [3]: 1790 nM
% growth inhibition [4]: < 0%

O=C(Nc1cccc(C2=NCCN2)c1)Nc1cccc(C2=NCCN2)c1
plaque count per well [1]: 38
% inhibition of schizont-to-ring transition ([2]; 1 µM): < 0%
% inhibition of schizont-to-ring transition ([2]; 3 µM): 1.31%
% inhibition of schizont-to-ring transition ([2]; 10 µM): 32.2%
EC50 growth inhibition [3]: 1840 nM
% growth inhibition [4]: 7.82 ± 3.2%

Cc1c(C)n(Cc2ccc(F)cc2)c2ccc(C(=O)NCc3ccco3)cc12
plaque count per well [1]: 21
% inhibition of schizont-to-ring transition ([2]; 1 µM): 36.3%
% inhibition of schizont-to-ring transition ([2]; 3 µM): 40.3%
% inhibition of schizont-to-ring transition ([2]; 10 µM): 53.4%
EC50 growth inhibition [3]: 1770 nM
% growth inhibition [4]: < 0%

CCOc1cc2c(cc1OCC)C(c1cc(C)c(O)c(C)c1)NCC2 (stereo not given)
plaque count per well [1]: 31
% inhibition of schizont-to-ring transition ([2]; 1 µM): 6.53%
% inhibition of schizont-to-ring transition ([2]; 3 µM): 17.1%
% inhibition of schizont-to-ring transition ([2]; 10 µM): 43.5%
EC50 growth inhibition [3]: 792 nM
% growth inhibition [4]: 14.9 ± 14%

Cc1cccc(N2C(=O)C3C(C2=O)C2(c4ccccc4)C(=O)C3(c3ccccc3)C(c3ccc4c(c3)OCO4)=C2c2ccc3c(c2)OCO3)c1 (stereo not given)
plaque count per well [1]: 20
% inhibition of schizont-to-ring transition ([2]; 1 µM): < 0%
% inhibition of schizont-to-ring transition ([2]; 3 µM): < 0%
% inhibition of schizont-to-ring transition ([2]; 10 µM): 17.3%
EC50 growth inhibition [3]: 1020 nM
% growth inhibition [4]: < 0%

Cn1c(=O)c2cc(C(=O)NCCCN3CCCCCC3)sc2c2ccccc21
plaque count per well [1]: 25
% inhibition of schizont-to-ring transition ([2]; 1 µM): 42.6%
% inhibition of schizont-to-ring transition ([2]; 3 µM): 49.5%
% inhibition of schizont-to-ring transition ([2]; 10 µM): 53.2%
EC50 growth inhibition [3]: 833 nM
% growth inhibition [4]: 5.71 ± 9.9%

CCCCc1c(C)nc2c(OC)cccc2c1O
plaque count per well [1]: 0
% inhibition of schizont-to-ring transition ([2]; 1 µM): 41.9%
% inhibition of schizont-to-ring transition ([2]; 3 µM): 45.3%
% inhibition of schizont-to-ring transition ([2]; 10 µM): 49.4%
EC50 growth inhibition [3]: 2640 nM
% growth inhibition [4]: 9.6 ± 15%

CN1c2ccccc2N(C)C1c1ccc2c(c1)OCO2
plaque count per well [1]: 23
% inhibition of schizont-to-ring transition ([2]; 1 µM): < 0%
% inhibition of schizont-to-ring transition ([2]; 3 µM): < 0%
% inhibition of schizont-to-ring transition ([2]; 10 µM): 18.3%
EC50 growth inhibition [3]: 9760 nM
% growth inhibition [4]: < 0%

COc1ccc(N2CCN(C(CNC(=O)C3CCCCC3)c3ccc4c(c3)OCO4)CC2)cc1 (stereo not given)
plaque count per well [1]: 23
% inhibition of schizont-to-ring transition ([2]; 1 µM): 41.5%
% inhibition of schizont-to-ring transition ([2]; 3 µM): 44.2%
% inhibition of schizont-to-ring transition ([2]; 10 µM): 49.2%
EC50 growth inhibition [3]: 6240 nM
% growth inhibition [4]: < 0%

COc1ccccc1CNC(=O)C1c2ccccc2C(=O)N(CC(C)C)C1c1cccs1 (stereo not given)
plaque count per well [1]: 24
% inhibition of schizont-to-ring transition ([2]; 1 µM): 34.5%
% inhibition of schizont-to-ring transition ([2]; 3 µM): 45%
% inhibition of schizont-to-ring transition ([2]; 10 µM): 68.1%
EC50 growth inhibition [3]: 926 nM
% growth inhibition [4]: < 0%

CC1=C(CC(=O)c2cccc([N+](=O)[O-])c2)C(=O)c2ccccc2C1=O
plaque count per well [1]: 0
% inhibition of schizont-to-ring transition ([2]; 1 µM): 32.3%
% inhibition of schizont-to-ring transition ([2]; 3 µM): 55.7%
% inhibition of schizont-to-ring transition ([2]; 10 µM): 59.9%
EC50 growth inhibition [3]: 9850 nM
% growth inhibition [4]: < 0%

O=C(Nc1ccc(CN2CCOCC2)cc1)c1ccc(-c2ccc(Br)cc2)o1
plaque count per well [1]: 30
% inhibition of schizont-to-ring transition ([2]; 1 µM): 40.3%
% inhibition of schizont-to-ring transition ([2]; 3 µM): 45.9%
% inhibition of schizont-to-ring transition ([2]; 10 µM): 59.2%
EC50 growth inhibition [3]: 1420 nM
% growth inhibition [4]: 8.26 ± 14%

Clc1ccc2[nH]c3c(NCCCN4CCOCC4)ncnc3c2c1
plaque count per well [1]: 23
% inhibition of schizont-to-ring transition ([2]; 1 µM): 40.9%
% inhibition of schizont-to-ring transition ([2]; 3 µM): 53.1%
% inhibition of schizont-to-ring transition ([2]; 10 µM): 56.3%
EC50 growth inhibition [3]: 189 nM
% growth inhibition [4]: < 0%

CCc1ccc(CNCC(O)c2ccccc2)cc1 (stereo not given)
plaque count per well [1]: 21
% inhibition of schizont-to-ring transition ([2]; 1 µM): 12.2%
% inhibition of schizont-to-ring transition ([2]; 3 µM): 14.9%
% inhibition of schizont-to-ring transition ([2]; 10 µM): 45.9%
EC50 growth inhibition [3]: 4010 nM
% growth inhibition [4]: < 0%

CCn1c2c(c(=N)c3c1CCC3)CCCC2
plaque count per well [1]: 34
% inhibition of schizont-to-ring transition ([2]; 1 µM): 43.8%
% inhibition of schizont-to-ring transition ([2]; 3 µM): 47.9%
% inhibition of schizont-to-ring transition ([2]; 10 µM): 56.4%
EC50 growth inhibition [3]: 2640 nM
% growth inhibition [4]: < 0%

COc1ccc(CNC2CCN(c3ccc(NC(=O)c4cccc(Cl)c4)cc3)CC2)cc1OC
plaque count per well [1]: 0
% inhibition of schizont-to-ring transition ([2]; 1 µM): < 0%
% inhibition of schizont-to-ring transition ([2]; 3 µM): 28.3%
% inhibition of schizont-to-ring transition ([2]; 10 µM): 38.6%
EC50 growth inhibition [3]: 492 nM
% growth inhibition [4]: 3.03 ± 5.2%

COc1cccc(C(=O)NC(c2ccc(C)cc2)c2cc(Cl)c3cccnc3c2O)c1 (stereo not given)
plaque count per well [1]: 0
% inhibition of schizont-to-ring transition ([2]; 1 µM): 30.4%
% inhibition of schizont-to-ring transition ([2]; 3 µM): 42.1%
% inhibition of schizont-to-ring transition ([2]; 10 µM): 49.9%
EC50 growth inhibition [3]: 7640 nM
% growth inhibition [4]: < 0%

CCCN(CCC)CC(O)COc1ccccc1C(=O)Nc1ccccc1 (stereo not given)
plaque count per well [1]: 25
% inhibition of schizont-to-ring transition ([2]; 1 µM): 33%
% inhibition of schizont-to-ring transition ([2]; 3 µM): 65.6%
% inhibition of schizont-to-ring transition ([2]; 10 µM): 73.5%
EC50 growth inhibition [3]: 420 nM
% growth inhibition [4]: < 0%

O=C(Nc1ccc(Br)cc1)Nc1cccc(Cl)c1
EC50 growth inhibition [5]: 3770 nM
% inhibition of schizont-to-ring transition ([2]; 1 µM): 24.1%
% inhibition of schizont-to-ring transition ([2]; 3 µM): 22.5%
% inhibition of schizont-to-ring transition ([2]; 10 µM): 58.1%
% growth inhibition [4]: 96.13 ± 0.57%

COc1ccc(-c2cc3c(SCC(=O)Nc4cc(C(F)(F)F)ccc4Cl)nccn3n2)cc1
plaque count per well [1]: 28
% inhibition of schizont-to-ring transition ([2]; 1 µM): 35.7%
% inhibition of schizont-to-ring transition ([2]; 3 µM): 37.5%
% inhibition of schizont-to-ring transition ([2]; 10 µM): 49.5%
EC50 growth inhibition [3]: 259 nM
% growth inhibition [4]: < 0%

O=C(Nc1ccc(Cl)cc1)N1CCN(c2ccc3nncn3n2)CC1
plaque count per well [1]: 22
% inhibition of schizont-to-ring transition ([2]; 1 µM): 13.1%
% inhibition of schizont-to-ring transition ([2]; 3 µM): 24.8%
% inhibition of schizont-to-ring transition ([2]; 10 µM): 54.3%
EC50 growth inhibition [3]: 6370 nM
% growth inhibition [4]: < 0%

CCN1CCN(Cc2ccc(NC(=O)c3cc4ccc5cccnc5c4[nH]3)cc2)CC1
plaque count per well [1]: 31
% inhibition of schizont-to-ring transition ([2]; 1 µM): 36.2%
% inhibition of schizont-to-ring transition ([2]; 3 µM): 49.2%
% inhibition of schizont-to-ring transition ([2]; 10 µM): 55.2%
EC50 growth inhibition [3]: 161 nM
% growth inhibition [4]: < 0%

COc1ccc(-c2c(C)nn3c(N)c(C#N)cnc23)cc1OC
plaque count per well [1]: 22
% inhibition of schizont-to-ring transition ([2]; 1 µM): 71.1%
% inhibition of schizont-to-ring transition ([2]; 3 µM): 74.9%
% inhibition of schizont-to-ring transition ([2]; 10 µM): 76.1%
EC50 growth inhibition [3]: 3710 nM
% growth inhibition [4]: 7.54 ± 13%

Clc1ccc2c(N3CCCC3)ccnc2c1
plaque count per well [1]: 25
% inhibition of schizont-to-ring transition ([2]; 1 µM): 43.1%
% inhibition of schizont-to-ring transition ([2]; 3 µM): 53.3%
% inhibition of schizont-to-ring transition ([2]; 10 µM): 69.9%
EC50 growth inhibition [3]: 1280 nM
% growth inhibition [4]: < 0%

COc1ccc(N2CCN(C(CNC(=O)CC(C)(C)C)c3ccc4c(c3)OCO4)CC2)cc1 (stereo not given)
plaque count per well [1]: 24
% inhibition of schizont-to-ring transition ([2]; 1 µM): 8.37%
% inhibition of schizont-to-ring transition ([2]; 3 µM): 17.9%
% inhibition of schizont-to-ring transition ([2]; 10 µM): 32.6%
EC50 growth inhibition [3]: 1680 nM
% growth inhibition [4]: < 0%

O=C(NCC(c1ccsc1)N1CCCCCC1)c1ccc(C(F)(F)F)cc1 (stereo not given)
plaque count per well [1]: 0
% inhibition of schizont-to-ring transition ([2]; 1 µM): 43.8%
% inhibition of schizont-to-ring transition ([2]; 3 µM): 41.5%
% inhibition of schizont-to-ring transition ([2]; 10 µM): 47.4%
EC50 growth inhibition [3]: 3350 nM
% growth inhibition [4]: 11 ± 19%

OC(CNC1CCCC1)Cn1c2ccccc2c2ccccc21 (stereo not given)
plaque count per well [1]: 0
% inhibition of schizont-to-ring transition ([2]; 1 µM): 22.3%
% inhibition of schizont-to-ring transition ([2]; 3 µM): 40.1%
% inhibition of schizont-to-ring transition ([2]; 10 µM): 63.4%
EC50 growth inhibition [3]: 723 nM
% growth inhibition [4]: 15.9 ± 6.6%
